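Where inhibition never reached the appropriate level, the endpoint shown equals the highest concentration tested. Otherwise, values were interpolated linearly from a five-concentration, 48-hour dose response in 96-well plates. TGI marks complete inhibition of growth.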
What was measured:
Assay in all cases: NCI-60 cell line screen, 48 h
786-0 renal = tested on: 786-0 renal
A498 renal = tested on: A498 renal
A549 NSCLC = tested on: A549 NSCLC
ACHN renal = tested on: ACHN renal
BT-549 breast = tested on: BT-549 breast
CAKI-1 renal = tested on: CAKI-1 renal
CCRF-CEM leukemia = tested on: CCRF-CEM leukemia
DU-145 prostate = tested on: DU-145 prostate
EKVX NSCLC = tested on: EKVX NSCLC
HCC-2998 colon = tested on: HCC-2998 colon
HCT-116 colon = tested on: HCT-116 colon
HCT-15 colon = tested on: HCT-15 colon
HL-60(TB) leukemia = tested on: HL-60(TB) leukemia
HOP-62 NSCLC = tested on: HOP-62 NSCLC
HOP-92 NSCLC = tested on: HOP-92 NSCLC
HS 578T breast = tested on: HS 578T breast
HT29 colon = tested on: HT29 colon
IGROV1 ovarian = tested on: IGROV1 ovarian
K-562 leukemia = tested on: K-562 leukemia
KM12 colon = tested on: KM12 colon
LOX IMVI melanoma = tested on: LOX IMVI melanoma
M14 melanoma = tested on: M14 melanoma
MALME-3M melanoma = tested on: MALME-3M melanoma
MCF7 breast = tested on: MCF7 breast
MDA-MB-435 = tested on: MDA-MB-435
MDA-N = tested on: MDA-N
MOLT-4 leukemia = tested on: MOLT-4 leukemia
NCI-H226 lung = tested on: NCI-H226 lung
NCI-H23 lung = tested on: NCI-H23 lung
NCI-H460 lung = tested on: NCI-H460 lung
NCI-H522 lung = tested on: NCI-H522 lung
NCI/ADR-RES ovarian = tested on: NCI/ADR-RES ovarian
OVCAR-3 ovarian = tested on: OVCAR-3 ovarian
OVCAR-4 ovarian = tested on: OVCAR-4 ovarian
OVCAR-5 ovarian = tested on: OVCAR-5 ovarian
OVCAR-8 ovarian = tested on: OVCAR-8 ovarian
PC-3 prostate = tested on: PC-3 prostate
RPMI-8226 leukemia = tested on: RPMI-8226 leukemia
SF-268 CNS = tested on: SF-268 CNS
SF-295 CNS = tested on: SF-295 CNS
SF-539 CNS = tested on: SF-539 CNS
SK-MEL-2 melanoma = tested on: SK-MEL-2 melanoma
SK-MEL-5 melanoma = tested on: SK-MEL-5 melanoma
SK-OV-3 ovarian = tested on: SK-OV-3 ovarian
SN12C renal = tested on: SN12C renal
SNB-19 CNS = tested on: SNB-19 CNS
SNB-75 CNS = tested on: SNB-75 CNS
SW-620 colon = tested on: SW-620 colon
TK-10 renal = tested on: TK-10 renal
U251 CNS = tested on: U251 CNS
UACC-257 melanoma = tested on: UACC-257 melanoma
UACC-62 melanoma = tested on: UACC-62 melanoma
UO-31 renal = tested on: UO-31 renal
COLO 205 colon = tested on: COLO 205 colon
MDA-MB-231 breast = tested on: MDA-MB-231 breast
SK-MEL-28 melanoma = tested on: SK-MEL-28 melanoma

Measured: TGI

COc1ccc(COC(=O)NNC(=O)C2CSC(c3ccccc3)N2C(C)=O)cc1 (centres undefined)
not listed: COLO 205 colon | MDA-MB-231 breast | SK-MEL-28 melanoma
> 100 µM: all other assays above

CC[C@H](CC[C@@H](C)[C@H]1CC[C@H]2[C@@H]3CC=C4C[C@@H](O)CC[C@]4(C)[C@H]3CC[C@]12C)C(C)C
not listed: A498 renal | BT-549 breast | HL-60(TB) leukemia | SK-OV-3 ovarian | UACC-62 melanoma
> 100 µM: all other assays above

Source: PubChem BioAssay (NCI)
